This is an account of results in patent publication US20150374767A1, “Treatment of Cancer” (priority 2013, published 2015).

Where two headings read alike, the source gives them in different places.

One experiment has as its target IR (Homo sapiens, UniProt P06213). As to conditions: cited from earlier work.
For a further experiment, the system named is B-Raf. As to conditions: read-out: IC50 for B-Raf; cited from earlier work.
Another experiment concerns VEGFR2. As to conditions: cited from earlier work.
For the next experiment, the target named is Flt3^D835Y (Homo sapiens, UniProt P36888, D835Y). The following applies: cited from earlier work.
For a further experiment, the target named is VEGFR3 (Homo sapiens, UniProt P35916). The following applies: cited from earlier work.
VEGFR3, sequence (P35916 25-1363): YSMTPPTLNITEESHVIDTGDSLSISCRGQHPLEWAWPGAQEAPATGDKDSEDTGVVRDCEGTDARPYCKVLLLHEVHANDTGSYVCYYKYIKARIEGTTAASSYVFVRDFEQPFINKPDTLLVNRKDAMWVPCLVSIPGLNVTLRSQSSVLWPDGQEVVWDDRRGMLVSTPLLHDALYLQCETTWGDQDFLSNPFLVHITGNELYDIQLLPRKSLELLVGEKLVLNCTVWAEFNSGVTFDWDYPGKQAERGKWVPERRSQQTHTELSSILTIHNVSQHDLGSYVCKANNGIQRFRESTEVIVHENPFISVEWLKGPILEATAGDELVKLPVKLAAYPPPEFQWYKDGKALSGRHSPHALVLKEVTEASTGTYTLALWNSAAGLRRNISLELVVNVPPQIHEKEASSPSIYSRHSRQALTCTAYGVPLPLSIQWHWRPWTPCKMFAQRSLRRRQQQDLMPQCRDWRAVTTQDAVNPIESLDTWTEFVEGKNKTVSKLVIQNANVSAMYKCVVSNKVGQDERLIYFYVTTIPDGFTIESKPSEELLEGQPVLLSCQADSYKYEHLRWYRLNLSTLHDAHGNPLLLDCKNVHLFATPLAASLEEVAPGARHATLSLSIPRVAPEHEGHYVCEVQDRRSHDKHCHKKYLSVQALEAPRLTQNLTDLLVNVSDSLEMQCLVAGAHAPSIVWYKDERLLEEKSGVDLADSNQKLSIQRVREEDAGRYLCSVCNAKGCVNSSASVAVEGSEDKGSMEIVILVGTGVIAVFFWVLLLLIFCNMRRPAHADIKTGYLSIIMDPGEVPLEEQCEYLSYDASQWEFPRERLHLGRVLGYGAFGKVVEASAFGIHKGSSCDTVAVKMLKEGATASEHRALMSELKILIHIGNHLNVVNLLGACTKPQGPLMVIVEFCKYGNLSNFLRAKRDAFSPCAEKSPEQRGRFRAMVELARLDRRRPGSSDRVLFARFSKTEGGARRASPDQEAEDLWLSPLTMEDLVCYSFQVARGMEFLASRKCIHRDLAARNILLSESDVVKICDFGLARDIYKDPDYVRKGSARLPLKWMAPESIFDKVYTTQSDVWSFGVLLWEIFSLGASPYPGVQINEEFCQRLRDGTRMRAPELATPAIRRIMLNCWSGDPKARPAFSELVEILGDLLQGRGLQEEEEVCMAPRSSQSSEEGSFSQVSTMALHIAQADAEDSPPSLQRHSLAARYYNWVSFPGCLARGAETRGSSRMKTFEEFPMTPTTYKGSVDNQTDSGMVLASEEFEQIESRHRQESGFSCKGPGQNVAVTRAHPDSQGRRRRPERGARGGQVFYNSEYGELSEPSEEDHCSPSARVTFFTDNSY
The subject of a further experiment is HuH7. It is filed as cell-based, human.
The next experiment concerns Virttu cell line panel. As to the kind of experiment: cells. The class given is cell-based. As to conditions: Homo sapiens.
In experiment [1] the test system is SKOV3. It is filed as cell-based, human.
The subject of another experiment is SPC111. As to the kind of experiment: combination with HSV1716, Chou-Talalay, SPC111. The class given is cell-based, human. The following applies: for synergy/antagonism with HSV1716 on cell death (Chou-Talalay): SPC111, HSV1716 moi 0.5 and 0.05, 72 hours.
For the next experiment, the system named is U87. The class given is cell-based, human.
In another experiment the test system is non-sensitive cells. The following applies: read-out: IC50 for non-sensitive cells, previously reported; cited from earlier work.
The subject of the next experiment is Virttu cell panel. Nature of the experiment: combination with HSV1716, DCP cell death, Chou-Talalay analysis, cell panel. The class given is cell-based, human.
A further experiment has as its system H1666. As to conditions: H1666, wild-type EGFR; read-out: IC50, inhibiting survival of lung cancer cell line; cited from earlier work.
Another experiment has as its system NCI-H1975. The following applies: NCI-H1975, L858R/T790M EGFR; read-out: IC50, inhibiting survival of lung cancer cell line; cited from earlier work.
The subject of a further experiment is H3255. The following applies: H3255, Gefitinib sensitive L858R; cited from earlier work.
Another experiment has as its system UVW cells. As to the kind of experiment: DCP cell death assay, drug alone, UVW. The class given is cell-based. As to conditions: Homo sapiens, 72 hrs, read-out: IC50 (DCP leakage).
Another experiment concerns HCC. As to conditions: monotherapy of HCC; cited from earlier work.
A further experiment has as its system One58. It is filed as cell-based, human.
Experiment [2] has as its system Ovcar3. It is filed as cell-based, human.
The subject of the next experiment is Hep3B. It is filed as cell-based, human.
In the next experiment the test system is UVW. It is filed as cell-based, human.
A further experiment deals with HSV1716gfp. Nature of the experiment: GFP expression during infection with HSV1716gfp (drug toxicity to virus). The class given is cell-based, herpes simplex virus.
The subject of another experiment is HepG2-luc. It is filed as cell-based, human.
A further experiment relates to CP70. The class given is cell-based, human.
In the next experiment the test system is HCC cell lines. The class given is cell-based, human.
The subject of experiment [3] is Ovcar3. Nature of the experiment: DCP cell death assay, drug alone, Ovcar3. It is filed as cell-based. As to conditions: Homo sapiens, OVCAR-3; Ovcar3, 72 hrs; read-out: IC50 (DCP leakage).
Experiment [4] concerns SKOV3. Nature of the experiment: DCP cell death assay, drug alone, SKOV3. It is filed as cell-based. The following applies: Homo sapiens, SK-OV-3; SKOV3, 72 hrs; read-out: IC50 (DCP leakage).
For experiment [5], the system named is breast carcinoma and melanoma cell lines. The following applies: read-out: IC50 in breast carcinoma and melanoma cell lines, reported; cited from earlier work.
Another experiment relates to SPC-111. Nature of the experiment: DCP cell death assay, drug alone, SPC-111. It is filed as cell-based. The following applies: Homo sapiens; SPC-111, 72 hrs; read-out: IC50 (DCP leakage).
A further experiment deals with RCC cell lines. As to conditions: read-out: IC50 in RCC cell lines, reported; cited from earlier work.

IR, sequence (P06213 28-1382): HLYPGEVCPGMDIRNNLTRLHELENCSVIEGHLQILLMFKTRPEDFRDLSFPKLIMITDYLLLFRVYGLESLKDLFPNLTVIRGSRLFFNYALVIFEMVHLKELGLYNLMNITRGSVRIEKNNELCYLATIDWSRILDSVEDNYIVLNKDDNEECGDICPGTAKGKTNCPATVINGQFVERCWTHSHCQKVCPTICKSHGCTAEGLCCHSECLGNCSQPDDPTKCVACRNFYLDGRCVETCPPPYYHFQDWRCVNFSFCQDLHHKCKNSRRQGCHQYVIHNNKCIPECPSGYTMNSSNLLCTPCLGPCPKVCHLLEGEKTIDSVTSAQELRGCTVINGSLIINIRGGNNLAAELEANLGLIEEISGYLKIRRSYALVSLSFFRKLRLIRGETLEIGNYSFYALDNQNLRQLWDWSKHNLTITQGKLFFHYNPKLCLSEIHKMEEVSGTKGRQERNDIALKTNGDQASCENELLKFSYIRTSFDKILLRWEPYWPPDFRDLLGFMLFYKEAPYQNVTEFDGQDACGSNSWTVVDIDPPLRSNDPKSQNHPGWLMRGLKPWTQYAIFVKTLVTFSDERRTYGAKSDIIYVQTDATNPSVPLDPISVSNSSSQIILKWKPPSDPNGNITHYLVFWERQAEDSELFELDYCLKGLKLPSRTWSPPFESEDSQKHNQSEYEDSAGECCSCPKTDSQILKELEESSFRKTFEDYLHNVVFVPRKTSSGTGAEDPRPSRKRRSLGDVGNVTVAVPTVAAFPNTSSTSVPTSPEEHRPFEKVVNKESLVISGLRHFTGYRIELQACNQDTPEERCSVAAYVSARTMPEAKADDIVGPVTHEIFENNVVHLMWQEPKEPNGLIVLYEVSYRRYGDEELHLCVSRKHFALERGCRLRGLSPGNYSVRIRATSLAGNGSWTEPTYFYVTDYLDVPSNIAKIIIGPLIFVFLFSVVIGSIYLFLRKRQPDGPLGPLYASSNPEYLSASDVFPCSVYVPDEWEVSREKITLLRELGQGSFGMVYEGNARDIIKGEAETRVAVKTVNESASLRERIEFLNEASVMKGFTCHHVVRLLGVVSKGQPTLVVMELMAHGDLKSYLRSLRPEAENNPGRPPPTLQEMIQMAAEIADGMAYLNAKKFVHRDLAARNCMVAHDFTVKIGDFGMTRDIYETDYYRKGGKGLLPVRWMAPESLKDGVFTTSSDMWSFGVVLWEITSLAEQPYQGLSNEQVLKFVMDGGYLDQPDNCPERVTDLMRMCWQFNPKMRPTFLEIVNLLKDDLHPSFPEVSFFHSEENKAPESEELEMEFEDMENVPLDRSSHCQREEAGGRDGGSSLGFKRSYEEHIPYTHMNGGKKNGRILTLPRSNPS

The IC50 is the point on the concentration scale where inhibition reaches its midpoint. As for `CC(C)(C)c1cc(C=C(C#N)C#N)cc(Br)c1O` [AG-1024, 2-(3-bromo-5-tert-butyl-4-hydroxybenzylidene)malononitrile], the IC50 at IR is 100 nM.
What is called EC50 is the concentration giving half of the maximal effect. Turning to `Cn1c(Nc2ccc(C(F)(F)F)cc2)nc2cc(Oc3ccnc(-c4ncc(C(F)(F)F)[nH]4)c3)ccc21` [RAF265, 1-methyl-5-(2-(5-(trifluoromethyl)-1H-imidazol-2-yl)pyridin-4-yloxy)-N-(4-(trifluoromethyl)phenyl)-1H-benzo[d]imidazol-2-amine], the IC50 in the experiment on B-Raf is […]. Besides, the concentration for a half-maximal effect (EC50) with VEGFR2 was […].
For the compound `S=C(NCc1ccc2c(c1)OCO2)N1CCN(c2ncnc3c2oc2ccccc23)CC1` [Amuvatinib, N-(benzo[d][1,3]dioxol-5-ylmethyl)-4-(benzofuro[3,2-d]pyrimidin-4-yl)piperazine-1-carbothioamide], the IC50 at Flt3^D835Y was 81 nM.
Take `CCn1c(N)c(C(=O)NC)c(=O)c2ccc(C#C[C@@](C)(O)COC)nc21` [SAR131675, (R)-2-amino-1-ethyl-7-(3-hydroxy-4-methoxy-3-methylbut-1-ynyl)-N-methyl-4-oxo-1,4-dihydro-1,8-naphthyridine-3-carboxamide]: the IC50 on VEGFR3 is 20 nM.
For `C#Cc1cccc(Nc2ncnc3cc(OCCOC)c(OCCOC)cc23)c1` [Erlotinib, N-(3-ethynylphenyl)-6,7-bis(2-methoxyethoxy)quinazolin-4-amine], the “number of synergistic combinations out of 8” value in the experiment on HuH7 was 1/8; with SKOV3 [1], 1/8; with SPC111 (SPC111, synergy at moi 0.05), 1/8. Moreover, the “synergy/antagonism with HSV1716 on cell death (Chou-Talalay)” value (from here on “synergy/antagonism … (Chou-Talalay)”) with HuH7 is on record as “limited synergy”; in the experiment on SKOV3 [1], “limited synergy”; in the experiment with SPC111, “limited synergy”; with U87, “synergistic”. Besides, the IC50 in the experiment with Virttu cell line panel (A-431, all other cell lines (other than A431), 72 hours, read-out: IC50 (DCP leakage), range) was 1000 to 25000 nM; with non-sensitive cells, over 10000 nM. Further, the “overall synergy/antagonism with HSV1716 on cell death” value in the experiment with Virttu cell panel is on record as “mostly antagonistic”. For the same compound, the “number of cell lines tested in which antagonism was detected” value with Virttu cell panel (drug + HSV1716 moi 0.5 and 0.05, cell death by DCP after 72 hours) is on record as 9 out of 10.
Regarding `CN(C)CC=CC(=O)Nc1cc2c(Nc3ccc(F)c(Cl)c3)ncnc2cc1O[C@H]1CCOC1` [Afantinib, N-[4-[(3-Chloro-4-fluorophenyl)amino]-7-[[(3S)-tetrahydro-3-furanyl]oxy]-6-quinazolinyl]-4(dimethylamino)-2-butenamide], the IC50 in the experiment with H1666 and with NCI-H1975 was under 100 nM throughout. The “IC50, inhibiting survival of lung cancer cell line” value in the experiment on H3255 is given as “subnanomolar”.
As to `CNC(=O)c1cc(Oc2ccc(NC(=O)Nc3ccc(Cl)c(C(F)(F)F)c3)cc2)ccn1` [Sorafenib, 4-[4-[[4-chloro-3-(trifluoromethyl)phenyl]carbamoylamino]phenoxy]-N-methyl-pyridine-2-carboxamide], the IC50 was 100 nM in the experiment on UVW cells and 1000 to 10000 nM with Virttu cell line panel (most/all cell lines of panel, 72 hrs, read-out: IC50 (DCP leakage), range over cell lines). The “prolongation of median survival and time to progression” value in the experiment on HCC is about 3 months. For the same compound, the “reduction of the risk of death during year 1” value with HCC is 31%. Also, the “synergy/antagonism … (Chou-Talalay)” value in the experiment on HuH7 was “synergistically”; in the experiment on One58, “no synergies”; in the experiment on Ovcar3 [2], “synergies occurred”; with Hep3B, “synergistically”; with UVW, “no synergies”; with HepG2-luc it was “synergistically”. In the experiment with CP70, the “synergy/antagonism … (Chou-Talalay)” value was “synergies occurred”. Also, the “effect on GFP expression during HSV1716gfp infection” value (“effect” below) is “more marked inhibitory effect” with HSV1716gfp (CP70, moi 0.05, 72 hrs); “more marked inhibitory effect” in the experiment on HSV1716gfp (Hep3B, moi 0.05, 72 hrs); “small inhibitory effect at the 2.5 μM Sorafenib concentration” in the experiment on HSV1716gfp (HuH7, moi 0.05, 72 hrs); “more marked inhibitory effect” with HSV1716gfp (One58, moi 0.05, 72 hrs); “more marked inhibitory effect” in the experiment with HSV1716gfp (Ovcar3, moi 0.05, 72 hrs); “no effect on GFP expression” in the experiment with HSV1716gfp (SKOV3, moi 0.05, 72 hrs). Also, the “effect” value in the experiment with HSV1716gfp (SPC111, moi 0.05, 72 hrs) is listed as “more marked inhibitory effect”; with HSV1716gfp (U87, moi 0.05, 72 hrs), “small inhibitory effect at the 2.5 μM Sorafenib concentration”; in the experiment on HSV1716gfp (UVW, moi 0.05, 72 hrs), “no effect on GFP expression”; in the experiment with HSV1716gfp (all cell lines tested, moi 0.5, 72 hrs) it was “little effect on GFP expression”. Further, in the experiment with Virttu cell panel, the “number of cell lines tested with clear synergy signals / synergism with HSV1716” value is 8/10. Further, the “synergy with HSV1716 on cell death (Chou-Talalay)” value in the experiment with HCC cell lines is recorded as “strongly synergistic”.
In the case of `Cc1ccc(Nc2nccc(N(C)c3ccc4c(C)n(C)nc4c3)n2)cc1S(N)(=O)=O` [Pazopanib, 5-[[4-[(2,3-Dimethyl-2H-indazol-6-yl)methylamino]-2-pyrimidinyl]amino]-2-methylbenzolsulfonamide], the IC50 is 40000 nM with Ovcar3 [3]; 40000 nM in the experiment with SKOV3 [4]; 300 nM with UVW cells; 1000 to 10000 nM in [5]; 3000 to 18000 nM in the experiment with Virttu cell line panel (Hep3B, HuH7, HepG2-luc, CP70, U87 and One58, 72 hrs, read-out: IC50 (DCP leakage), range); 40000 nM with SPC-111. For the same compound, in the experiment with RCC cell lines, the IC50 is 30000 to 60000 nM. The “synergy/antagonism … (Chou-Talalay)” value in the experiment on HuH7 is “limited synergy”; with One58, “synergistic”; in the experiment on SPC111, “limited synergy”; with CP70, “synergistic”. For the same compound, the “effect” value with HSV1716gfp (CP70, moi 0.5 and 0.05, 72 hrs) is recorded as “stimulated GFP expression”; in the experiment on HSV1716gfp (HepG2-luc, both moi (0.5 and 0.05), 72 hrs) it was “little effect on GFP expression”; with HSV1716gfp (HuH7, moi 0.05, 72 hrs), “more potent inhibitory effect”; in the experiment with HSV1716gfp (HuH7, moi 0.5, 72 hrs) it was “inhibited GFP expression”; in the experiment with HSV1716gfp (One58, moi 0.05, 72 hrs), “more potent inhibitory effect”; in the experiment on HSV1716gfp (One58, moi 0.5, 72 hrs) it was “inhibited GFP expression”. Moreover, the “effect” value is recorded as “more potent inhibitory effect” in the experiment with HSV1716gfp (Ovcar3, moi 0.05, 72 hrs); “inhibited GFP expression” with HSV1716gfp (Ovcar3, moi 0.5, 72 hrs); “no inhibitory effects” with HSV1716gfp (SKOV3, moi 0.05, 72 hrs); “inhibited GFP expression” in the experiment on HSV1716gfp (SKOV3, moi 0.5, 72 hrs); “no inhibitory effects” in the experiment on HSV1716gfp (UVW, moi 0.05, 72 hrs); “inhibited GFP expression” with HSV1716gfp (UVW, moi 0.5, 72 hrs). For the same compound, the “number of cell lines tested with clear synergy signals / synergism with HSV1716” value in the experiment on Virttu cell panel was 7/9.
